What was measured:
rat brain homogenate = assay: Preventive effect on lipid peroxide formation (thiobarbituric acid colorimetric method); format: biochemical; conditions: 10 % rat brain homogenate, pH 7.4, 30-minute incubation at 37°C
Method: (ii) Preventive effect on lipid peroxide formation: An ethanol solution containing 10^-3 or 10-^4 M of a test compound was added to a mixture of 2.4 ml of 0.067 M potassium phosphate buffer solution (pH 7.4) and 0.5 ml of 10 % rat brain homogenate to adjust the final volume of the mixture to 3 ml. After 30-minute incubation of the mixture at 37°C, one ml of 20 % trichloroacetic acid was added thereto, and lipid peroxide formation was determined by the thiobarbituric acid colorimetric method (J. Robak et al., Viochem. Pharmacol., Vol. 25, page 2233 (1976). Suppression (%) of lipid peroxide formation of the test compound was calculated according to the following formula: [formula] • Note: ^* : group containing the test compound ^** : group containing an equal volume of ethanol instead of the test compound solution ΔOD was calculated as [(optical density measured at 532 nm) - (optical density measured at 600 nm)]

male SD rats = assay: Hypolipidemic activity (test compound in diet of rats for one week; serum lipids and liver weight); format: in vivo; conditions: test compound 0.10 w/w % in diet for one week
Method: (i) Hypolipidemic activity:
A test compound (0.10 w/w %) was added to a commercial diet, and male SD rats (body weight: 120 - 140 g , a group of 6 rats) were maintained on the diet for one week. After the experimental period, blood was collected from the tail vein of the rats under ether anesthesia. Thereafter, the liver was excised and weighed. Serum cholesterol and serum triglyceride were measured according to the methods of Zak (Amer. J. Clin. Pathol., Vol. 24, page 1307 (1954)) and Van Handel Zilversmit (J. Lab. & Clin. Med., Vol. 50, page 152 (1957)), respectively. Then, the increase (%) in liver weight and the decrease (%) in serum cholesterol or triglyceride were calculated according to the following formulae: [formula] [formula]

SMILES: Cn1cc(C[C@H](NC(=O)SCc2ccccc2)C(=O)O)c2ccccc21 [N^1-methyl-Hα-benzylthiocarbonyl-L-tryptophan]
- Suppression (%) in lipid peroxide formation (rat brain homogenate; Dose 10^-3M, 1000 µM): 65.2%
- Suppression (%) in lipid peroxide formation (rat brain homogenate; Dose 10^-4M, 100 µM): 9.0%
- Decrease (%) in serum triglyceride (male SD rats): 30%
- Decrease (%) in serume cholesterol (male SD rats): 15%
- Increase (%) in liver weight (male SD rats): 5%

SMILES: CCOC(=O)C(C)(C)Oc1ccc(Cl)cc1 [Clofibrate, 2-(4-chlorophenoxy)-2-methylpropanoic acid ethyl ester, reference compound]
- Suppression (%) in lipid peroxide formation (rat brain homogenate; Dose 10^-3M, 1000 µM): 24.3%
- Suppression (%) in lipid peroxide formation (rat brain homogenate; Dose 10^-4M, 100 µM): 0.5%
- Decrease (%) in serum triglyceride (male SD rats): 34%
- Decrease (%) in serume cholesterol (male SD rats): 26%
- Increase (%) in liver weight (male SD rats): 14%

SMILES: Cc1ccc(CSC(=O)N[C@@H](Cc2c[nH]c3ccccc23)C(=O)O)cc1 [Nα-(4-methylbenzylthiocarbonyl)-L-tryptophan]
- Suppression (%) in lipid peroxide formation (rat brain homogenate; Dose 10^-3M, 1000 µM): 72.7%
- Suppression (%) in lipid peroxide formation (rat brain homogenate; Dose 10^-4M, 100 µM): 10.2%
- Decrease (%) in serum triglyceride (male SD rats): 48%
- Decrease (%) in serume cholesterol (male SD rats): 14%
- Increase (%) in liver weight (male SD rats): 0%

— patent EP0032708A1, “Tryptophan derivative, process for preparing same and a pharmaceutical composition containing such derivative” (Tanabe Seiyaku Co., Ltd., priority 1980, dated 1981)
